Reference: patent US8247596B2 (Sumitomo Chemical Company, Limited, priority 2007, dated 2012)

Columns and labels:
Format in all cases: in vivo
[1] = system: Musca domestica; assay: Test Example 4: filter paper/sucrose bait test on Musca domestica; settings: 24 h, read-out: pest death rate
Procedure: A formulation of any one of the present compounds (1), (4), (5), (7), (11), (12), (13), (18t), (18c), (19), (20), (21), (22), (24), (25t), (25c), (26t), (26c), (27), (29), (30), (31), (32), (33), (34), (35), (40), (41), (43), (49), (50) and (55) obtained according to Formulation Example 36 was diluted with water so that the active ingredient concentration was 500 ppm to obtain a test solution.
(§1) A filter paper having a diameter of 5.5 cm was spread on the bottom of a polyethylene cup having a diameter of 5.5 cm and 0.7 ml of the test solution was added dropwise onto the filter paper. As a bait 30 mg of sucrose was uniformly placed on the filter paper. Into the polyethylene cup, 10 female imagoes of Musca domestica were released and the cup was sealed with a lid. After 24 hours, the number of surviving Musca domestica was examined and the death rate of the pest was calculated.

[2] = system: Blattalla germanica; assay: Test Example 5: filter paper/sucrose bait test on Blattalla germanica; settings: for pest or weed control at 500 ppm: 144 h, read-out: pest death rate
Procedure: A formulation of any one of the present compounds (4), (5), (7), (12), (13), (18t), (18c), (22), (25t), (25c), (26t), (26c), (29), (30), (31), (32), (33), (34), (40), (41), (43), (49) and (55) obtained according to Formulation Example 36 was diluted with water so that the active ingredient concentration was 500 ppm to obtain a test solution.
as §1, with “2 male” for “10 female”, “Blattalla germanica” for “Musca domestica”, “6 days,” for “24 hours,”

[3] = system: Culex pipiens pallens; assay: Test Example 6: larvae of Culex pipiens pallens in treated water; settings: 24 h, read-out: pest death rate
Procedure: A formulation of any one of the present compounds (7), (11), (12), (13), (17), (18t), (18c), (22), (24), (25t), (25c), (26t), (26c), (27), (29), (33), (34), (35), (36), (38), (40), (41), (43), (47), (49), (50) and (55) obtained according to Formulation Example 36 was diluted with water so that the active ingredient concentration was 500 ppm to obtain a test solution.
To 100 mL of ion-exchanged water, 0.7 ml of the test solution was added (active ingredient concentration: 3.5 ppm). Into the solution, 20 last-instar larvae of Culex pipiens pallens were released. One day after, the number of surviving Culex pipiens pallens was examined and the death rate of the pest was calculated.

[4] = system: Haemaphysalis longicornis; assay: Test Example 7: treated filter paper pouch test on ticks; settings: filter paper treated with 100 mg/m^2, non-blood-sucking nymphal ticks, 10 ticks/group, two days after; for pest or weed control at 100 mg/m2: Haemaphysalis longicornis, 48 h, read-out: pest death rate
Procedure: Five milligrams of any one of the present compounds (4), (7), (18t), (22), (25t), (26t), (29), (30), (31), (32), (33), (34), (35), (40), (41), (42), (43), (44) and (55) was dissolved in 10 mL of acetone. One milliliter of the acetone solution was uniformly applied on one side of a filter paper (TOYO No. 2; 5×10 cm), so that the filter paper having a surface area of 50 cm^2 was treated with 100 mg/m^2 of the present compound. After drying, the filter paper was folded in two and its edges were clipped to make a pouch. Test ticks (non-blood-sucking nymphal ticks, Haemaphysalis longicornis, 10 ticks/group) were put into the pouch, and the pouch was sealed with clips. Two days after, the number of surviving ticks was examined and the death rate was calculated.

## N#CC(C1CCC(=NO)CC1)S(=O)(=O)CCC(F)(F)F (centres unmarked) [present compound (34), 2-[4-(hydroxyimino)cyclohexyl]-2-(3,3,3-trifluoropropylsulfonyl)acetonitrile]
[1]
  pest or weed control at 500 ppm: ≥ 90%
[2]
  pest or weed control at 500 ppm: 100%
[3]
  pest or weed control at 3.5 ppm: ≥ 95%
[4]
  pest or weed control at 100 mg/m2: 90%

## FC(F)(F)CCSCC1CCC(C=C(Br)Br)CC1 (centres unmarked) [present compound (24), 1-(2,2-dibromovinyl)-4-(3,3,3-trifluoropropylthiomethyl)cyclohexane]
[1]
  pest or weed control at 500 ppm: ≥ 90%
[3]
  pest or weed control at 3.5 ppm: ≥ 95%

## CC(C)(C)ON=C1CCC(C(C#N)S(=O)(=O)CCC(F)(F)F)CC1 (centres unmarked) [present compound (36), 2-[4-(t-butoxyimino)cyclohexyl]-2-(3,3,3-trifluoropropylsulfonyl)acetonitrile]
[3]
  pest or weed control at 3.5 ppm: ≥ 95%

## CC1(C)CCC(C(C#N)S(=O)(=O)CCC(F)(F)F)CC1 (centres unmarked) [present compound (50), 2-(4,4-dimethylcyclohexyl)-2-(3,3,3-trifluoropropylsulfonyl)acetonitrile]
[1]
  pest or weed control at 500 ppm: ≥ 90%
[3]
  pest or weed control at 3.5 ppm: ≥ 95%

## C#CC1=CCC(CS(=O)(=O)CCC(F)(F)F)CC1 (centres unmarked)
[1]
  pest or weed control at 500 ppm: ≥ 90%
[2]
  pest or weed control at 500 ppm: 100%
[3]
  pest or weed control at 3.5 ppm: ≥ 95%
[4]
  pest or weed control at 100 mg/m2: 90%

## CC1CCC(C(C#N)S(=O)(=O)CCC(F)(F)F)CC1 (centres unmarked) [present compound (49), 2-(4-methylcyclohexyl)-2-(3,3,3-trifluoropropylsulfonyl)acetonitrile]
[1]
  pest or weed control at 500 ppm: ≥ 90%
[2]
  pest or weed control at 500 ppm: 100%
[3]
  pest or weed control at 3.5 ppm: ≥ 95%

## N#CC(C1CCC(F)(F)CC1)S(=O)(=O)CCC(F)(F)F (centres unmarked) [present compound (29), 2-(4,4-difluorocyclohexyl)-2-(3,3,3-trifluoropropylsulfonyl)acetonitrile]
[1]
  pest or weed control at 500 ppm: ≥ 90%
[2]
  pest or weed control at 500 ppm: 100%
[3]
  pest or weed control at 3.5 ppm: ≥ 95%
[4]
  pest or weed control at 100 mg/m2: 90%

## FC(F)(F)CCSCC1CCC2(CC1)OCCO2 [present compound (1)]
[1]
  pest or weed control at 500 ppm: ≥ 90%

## C=CC(C)C(C#N)(C1CCC(=NOC)CC1)S(=O)(=O)CCC(F)(F)F (centres unmarked) [present compound (43), 2-[4-(methoxyimino)cyclohexyl]-3-methyl-2-(3,3,3-trifluoropropylsufonyl)-4-pentenenitrile]
[2]; 500 ppm, 0.7 ml on filter paper, 2 male imagoes of Blattalla germanica, after 6 days
  pest death rate: 100%
[4]
  pest death rate: 90%

## C#CC1CCC=CC1C(C#N)S(=O)(=O)CCC(F)(F)F (centres unmarked) [present compound (32), 2-(4-ethynyl-cyclohexen-3-yl)-2-(3,3,3-trifluoropropylsulfonyl)acetonitrile]
[1]
  pest or weed control at 500 ppm: ≥ 90%
[2]
  pest or weed control at 500 ppm: 100%
[4]
  pest or weed control at 100 mg/m2: 90%

## CCCC(C#N)(C1CCC(=NOC)CC1)S(=O)(=O)CCC(F)(F)F (centres unmarked) [present compound (42), 2-[4-(methoxyimino)cyclohexyl]-2-(3,3,3-trifluoropropylsulfonyl)pentanenitrile]
[4]
  pest or weed control at 100 mg/m2: 90%

## C#CC(C)C(C#N)(C1CCC(=NOC)CC1)S(=O)(=O)CCC(F)(F)F (centres unmarked) [present compound (44), 2-[4-(methoxyimino)cyclohexyl]-3-methyl-2-(3,3,3-trifluoropropylsulfonyl)-4-pentynenitrile]
[4]
  pest or weed control at 100 mg/m2: 90%

## CON=C1CCC(CS(=O)(=O)CCC(F)(F)F)CC1 (centres unmarked) [present compound (21), 4-(3,3,3-trifluoropropylsulfonylmethyl)-cyclohexanone O-methyloxime]
[1]
  pest or weed control at 500 ppm: ≥ 90%

## C#CC1(F)CCC(C(C#N)S(=O)(=O)CCC(F)(F)F)CC1 (centres unmarked) [present compound (31), 2-(4-ethynyl-4-fluorocyclohexyl)-2-(3,3,3-trifluoropropylsulfonyl)acetonitrile]
[1]
  pest or weed control at 500 ppm: ≥ 90%
[2]
  pest or weed control at 500 ppm: 100%
[4]
  pest or weed control at 100 mg/m2: 90%

## N#CC1CCC(CS(=O)(=O)CCC(F)(F)F)CC1 (centres unmarked) [present compound (20), 1-cyano-4-(3,3,3-trifluoropropylsulfonylmethyl)cyclohexane]
[1]
  pest or weed control at 500 ppm: ≥ 90%

## NC(=O)C(F)(C1CCC(F)(F)CC1)S(=O)(=O)CCC(F)(F)F (centres unmarked) [present compound (13), 2-(4,4-difluorocyclohexyl)-2-fluoro-2-(3,3,3-trifluoropropylsulfonyl)acetamide]
[1]
  pest or weed control at 500 ppm: ≥ 90%
[2]
  pest or weed control at 500 ppm: 100%
[3]
  pest or weed control at 3.5 ppm: ≥ 95%

## CCON=C1CCC(C(C#N)S(=O)(=O)CCC(F)(F)F)CC1 (centres unmarked) [present compound (35), 2-[4-(ethoxyimino)cyclohexyl]-2-(3,3,3-trifluoropropylsufonyl)acetonitrile]
[4]
  pest death rate: 90%

## O=S(=O)(CCC(F)(F)F)CC1CCC(F)(F)CC1 [present compound (4), 1,1-difluoro-4-(3,3,3,-trifluoropropylsulfonylmethyl)cyclohexanone]
[1]
  pest or weed control at 500 ppm: ≥ 90%
[2]
  pest or weed control at 500 ppm: 100%
[4]
  pest or weed control at 100 mg/m2: 90%

## C#CC1CCC(CSCCC(F)(F)F)CC1 (centres unmarked) [present compound (25c)]
[1]
  pest or weed control at 500 ppm: ≥ 90%
[2]
  pest or weed control at 500 ppm: 100%
[3]
  pest or weed control at 3.5 ppm: ≥ 95%

## C#CC1(O)CCC(C(C#N)S(=O)(=O)CCC(F)(F)F)CC1 (centres unmarked) [present compound (30), 2-(4-ethynyl-4-hydroxycyclohexyl)-2-(3,3,3-trifluoropropylsulfonyl)acetonitrile]
[1]
  pest or weed control at 500 ppm: ≥ 90%
[2]
  pest or weed control at 500 ppm: 100%
[4]
  pest or weed control at 100 mg/m2: 90%

## O=S(=O)(CCC(F)(F)F)CC1CC=C(F)CC1 (centres unmarked) [present compound (5)]
[1]
  pest or weed control at 500 ppm: ≥ 90%
[2]
  pest or weed control at 500 ppm: 100%

## N#CC(C1CCCCC1)S(=O)(=O)CCC(F)(F)F (centres unmarked) [present compound (47), 2-cyclohexyl-2-(3,3,3-trifluoropropylsulfonyl)acetonitrile]
[3]
  pest or weed control at 3.5 ppm: ≥ 95%

## N#CC(C1CCC2(CC1)OCCO2)S(=O)(=O)CCC(F)(F)F (centres unmarked) [present compound (27), 2-(1,4-dioxaspiro[4.5]dec-8-yl)-2-(3,3,3-trifluoropropylsulfonyl)acetonitrile]
[1]
  pest or weed control at 500 ppm: ≥ 90%
[3]
  pest or weed control at 3.5 ppm: ≥ 95%

## COC(=O)CCC#CC1CCC(CS(=O)(=O)CCC(F)(F)F)CC1 (centres unmarked) [present compound (19), 5-[4-(3,3,3-trifluoropropylsulfonylmethyl)cycohexanyl]-4-pentynic acid methyl ester]
[1]
  pest or weed control at 500 ppm: ≥ 90%

## N#CC(C1CCC(=NOCc2ccccc2)CC1)S(=O)(=O)CCC(F)(F)F (centres unmarked) [present compound (38), 2-[4-(O-benzylhydroxylimino)cyclohexyl]-2-(3,3,3-trifluoropropylsulfonyl)acetonitrile]
[3]
  pest or weed control at 3.5 ppm: ≥ 95%

## O=S(=O)(CCC(F)(F)F)CC1CCC(C=C(Br)Br)CC1 (centres unmarked) [present compound (17), 1-(2,2-dibromovinyl)-4-(3,3,3-trifluoropropylsulfonylmethyl)cyclohexane]
[3]
  pest or weed control at 3.5 ppm: ≥ 95%

## COC(=O)C(F)(C1CCC(F)(F)CC1)S(=O)(=O)CCC(F)(F)F (centres unmarked) [present compound (12), methyl 2-(4,4-difluorocyclohexyl)-2-fluoro-2-(3,3,3-trifluoropropylsulfonyl)acetate]
[1]
  pest or weed control at 500 ppm: ≥ 90%
[2]
  pest or weed control at 500 ppm: 100%
[3]
  pest or weed control at 3.5 ppm: ≥ 95%

## COC(=O)C(C1CCC(F)(F)CC1)S(=O)(=O)CCC(F)(F)F (centres unmarked) [present compound (11), methyl 2-(4,4-difluorocyclohexyl)-2-(3,3,3-trifluoropropylsulfonyl)acetate]
[1]
  pest or weed control at 500 ppm: ≥ 90%
[3]
  pest or weed control at 3.5 ppm: ≥ 95%
